From US10124033B2, “Peptides and methods of use” (BAXALTA INCORPORATED, priority 2014, dated 2018)
Residues, ends and D or L forms follow the SMILES beside them.

What was measured:
[1] = molecular target: T1, Protein S/APC cofactor activity (Homo sapiens, UniProt P07225); assay: CAT assay: Protein S/APC-dependent thrombin generation in FVIII-inhibited plasma; assay type: biochemical
T1 construct: host or cells: plasma
T1 sequence (P07225 41-676 limits assumed): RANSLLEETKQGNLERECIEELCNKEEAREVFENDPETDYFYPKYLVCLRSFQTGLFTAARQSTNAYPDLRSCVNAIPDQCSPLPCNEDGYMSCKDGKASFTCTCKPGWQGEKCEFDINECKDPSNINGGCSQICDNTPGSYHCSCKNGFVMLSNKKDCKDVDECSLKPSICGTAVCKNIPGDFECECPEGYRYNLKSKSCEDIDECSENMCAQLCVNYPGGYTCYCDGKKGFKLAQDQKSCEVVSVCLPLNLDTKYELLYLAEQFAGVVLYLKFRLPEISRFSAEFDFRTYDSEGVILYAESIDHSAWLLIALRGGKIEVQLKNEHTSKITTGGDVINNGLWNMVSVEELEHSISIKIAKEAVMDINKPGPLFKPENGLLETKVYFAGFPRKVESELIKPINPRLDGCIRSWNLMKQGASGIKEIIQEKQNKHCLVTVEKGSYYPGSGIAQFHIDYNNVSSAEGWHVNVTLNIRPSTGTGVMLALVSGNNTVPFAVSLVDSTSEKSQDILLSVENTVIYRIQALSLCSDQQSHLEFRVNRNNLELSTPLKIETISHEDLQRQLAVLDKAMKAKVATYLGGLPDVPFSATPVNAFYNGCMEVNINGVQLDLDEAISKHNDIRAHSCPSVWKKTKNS
Description: Peptides also were tested for improvement of Protein S/APC-dependent thrombin generation in hemophilic plasma using a CAT assay. Protein S enhances the anticoagulation of APC in plasma. The CAT assay quantifies the effect of Protein S on APC-mediated thrombin generation initiated via the extrinsic coagulation pathway (Nicolaes, Blood Coagul. Fibrinolysis, 8:28 (1997)). APC (35 nM) and Protein S (25 nM) was added to Protein 5-depleted plasma, and plasma samples were incubated with high titer heat inactivated anti-human FVIII plasma raised in goat (4490 BU/ml; Baxter BioScience, Vienna, Austria; 50 BU/ml final plasma concentration). Thrombin formation in plasma was followed by calibrated automated thrombography (CAT) in a Fluoroskan Ascent® reader (Thermo Labsystems, Helsinki, Finland) and quantified via the thrombin peak-height. Thrombin generation was determined at high tissue factor (TF) concentration in the absence and in the presence of APC at a concentration that reduces the peak height to ˜20%. The inhibitory effect of peptides described herein on the APC cofactor activity of Protein S (PS) in plasma was measured in FVIII-inhibited pooled normal plasma supplemented with APC. Complete (100%) Protein S/APC inhibition is the height of the thrombin peak without addition of APC. Lack of (0%) PS/APC inhibition correlates to the thrombin peak-height value with a certain amount of APC. Peptides were ranked by their normalized values in comparison to the mean of wild-type controls including SD at two defined peptide concentrations (EC50 and EC90).
Exemplary conditions for the CAT assay are as follows. Protein S-depleted plasma was supplemented with 35 nM APC and […]. Stock APC was diluted with 10 pM TF and 15 μM PL. Lyophilized peptides were dissolved in 100% DMSO to a 5 mM stock concentration and further diluted with HNABSA5-buffer+0.1% Tween80. […] In a 96 well Immulon 2HB (transparent), U-bottom (ThermoElectron) plate was mixed 80 μl plasma (+CTI+Z994-5), 10 μl peptide dilution, and 10 μl APC-TF-PL-MIX or Calibrator. Thrombin generation was initiated by dispensing 20 μL of FluCa reagent containing fluorogenic substrate and HEPES-buffered CaCl2 (100 mM) into each well. Fluorescence intensity was recorded at 37° C. using the Fluoroskan Ascent® reader (filters 390 nm excitation and 460 nm emission). The parameters of the resulting thrombin generation curves were calculated using the Thrombinoscope™ software (Thrombinoscope) and thrombin calibrator to correct for inner filter and substrate consumption effects (Hemker, Pathophysiol Haemost Thromb, 33: 415 (2003)).

human GAS6 = molecular target: T2, human GAS6 (Homo sapiens, UniProt Q14393); assay: Biacore binding to anti-target GAS6
T2 sequence (Q14393 31-678): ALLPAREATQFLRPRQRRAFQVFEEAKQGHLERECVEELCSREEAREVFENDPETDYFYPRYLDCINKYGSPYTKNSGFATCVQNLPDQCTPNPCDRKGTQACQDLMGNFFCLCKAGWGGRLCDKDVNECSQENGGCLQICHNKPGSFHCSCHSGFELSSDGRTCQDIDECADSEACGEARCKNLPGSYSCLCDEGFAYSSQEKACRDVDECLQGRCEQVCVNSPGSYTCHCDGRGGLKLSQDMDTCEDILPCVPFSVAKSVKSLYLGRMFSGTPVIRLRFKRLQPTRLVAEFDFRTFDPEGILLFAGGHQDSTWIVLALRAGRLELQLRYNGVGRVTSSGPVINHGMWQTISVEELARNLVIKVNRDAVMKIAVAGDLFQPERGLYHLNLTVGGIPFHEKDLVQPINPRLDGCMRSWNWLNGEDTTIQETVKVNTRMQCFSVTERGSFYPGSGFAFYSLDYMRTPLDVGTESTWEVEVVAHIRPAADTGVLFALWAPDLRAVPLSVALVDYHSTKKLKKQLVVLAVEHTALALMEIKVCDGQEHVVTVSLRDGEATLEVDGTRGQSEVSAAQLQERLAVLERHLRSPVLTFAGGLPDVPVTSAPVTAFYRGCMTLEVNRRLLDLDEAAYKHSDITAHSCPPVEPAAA
Description: Protein S affinity also was determined via Biacore (Biacore 3000 or Biacore T200) using human full-length Protein S and human GAS6. Briefly, 1000 RU of Protein S or GAS6 were immobilized on a CMS chip. In order to probe the kinetics of Protein S binding peptides to Protein S, the peptides were injected at various concentrations in a HBS-buffer containing 3 mM CaCl2 and 1% DMSO to the flow cell and allowed to interact with the immobilized proteins on the sensor chip. The chip could be regenerated with 4 M MgCl2 in HBS-buffer. Sensorgrams were fitted to a Langmuir binding model for the determination of kon and koff and the calculation of KD. Peptides were tested on their specificity to Protein S with peptide binding studies on the anti-target GAS6.
Interactions with the anti-target GAS6 were measured via Biacore (surface plasmon resonance) (see Example 2). The maximum signal from the interaction of the peptides with human GAS6 was much lower than the signals obtained with Protein S as interaction partner. Kinetic analysis of the low GAS6 binding signals was error prone, and sensorgrams were reviewed visually to estimate anti-target binding. […] The affinity of JBS2572 for the anti-target was at least 10 times less (indeed, at least 150 times less) than the affinity of the peptides for human Protein S. The data provided by this example confirm that peptides described herein specifically bind Protein S.

increase of activity in the CAT-assay compared to JBS2512 ([1]; His to Leu substitution at position 3): 1.6 fold
PS/APC-dependent thrombin generation in hemophilic plasma ([1]; hemophilic plasma): improved
affinity for anti-target GAS6 relative to human Protein S (times less) (human GAS6): at least 150 times
binding to GAS6 (human GAS6; 1 μM peptide, sensorgrams reviewed visually): no specific binding
Structure (SMILES): CC(=O)N[C@H](C(=O)NCC(=O)N[C@@H](CC(C)C)C(=O)N[C@H](C(=O)N[C@@H](CO)C(=O)N[C@@H](C)C(=O)NCC(=O)N[C@@H](Cc1c[nH]c2ccccc12)C(=O)N[C@@H](Cc1ccc(O)cc1)C(=O)N[C@@H](CC(=O)O)C(=O)N[C@@H](Cc1ccc(O)cc1)C(=O)N[C@@H](CC(N)=O)C(=O)N[C@@H](Cc1ccccc1)C(=O)N[C@@H](CC(=O)O)C(=O)N[C@@H](Cc1c[nH]cn1)C(=O)N[C@@H](Cc1ccc(O)cc1)C(=O)N[C@@H](CCCNC(=N)N)C(=O)N[C@@H](CCC(=O)O)C(=O)N[C@@H](Cc1ccccc1)C(=O)N[C@H](C(N)=O)[C@@H](C)O)C(C)C)[C@@H](C)O [JBS2572] (Ac-TGLVSAGWYDYNFDHYREFT-NH2)
